Source: US6333348A, “Use of docetaxel for treating cancers” (Aventis Pharma S.A., priority 2000, dated 2001)

How the values were obtained:
[1] = treatments based on taxoid derivatives, including docetaxel; cited from earlier work
[2] = tested on: breast cancer; experiment: Docetaxel alone, several in-house proprietary studies; assay type: in vivo, human
Procedure: Docetaxel alone, in several in-house proprietary studies, gave overall response rates of 40 to 43% (in second line therapy at a dose of 100 mg/m^2), 48% (in first line therapy at a dose of 75 mg/m^2) and 61% (in first line therapy at a dose of 100 mg/m^2).

## CC(=O)O[C@@]12CO[C@@H]1C[C@H](O)[C@@]1(C)C(=O)[C@H](O)C3=C(C)[C@@H](OC(=O)[C@H](O)[C@@H](NC(=O)OC(C)(C)C)c4ccccc4)C[C@@](O)([C@@H](OC(=O)c4ccccc4)[C@H]21)C3(C)C [docetaxel]
[1]
  toxicities: myelosuppression, neutropenia, hypersensitivity, peripheral neuropathy, and fluid retention
[2]; first line therapy, 75 mg/m^2
  overall response rate: 48%
[2]; first line therapy, 100 mg/m^2
  overall response rate: 61%
[2]; second line therapy, 100 mg/m^2
  overall response rate: 40 to 43%
